# “And” between values parts separate entries of the source, which are not always exact repeats. Identical values can stand only once. Like-named read-outs stand apart in the source and are kept apart here. Marks after values point to notes of the source that are not given here.
# What was measured:
# CB1 (rCB1) [1] = biological target: T1, CB1 (rCB1) (Rattus norvegicus, UniProt P20272); experiment: Radioligand competition binding, [3H]-CP-55,940, rat brain membranes
# hCB1 [2] = biological target: T2, hCB1 (Homo sapiens, UniProt P21554); experiment: Lance Ultra cAMP accumulation assay, CHO cells; assay type: cell-based; parameters: expressed in transfected cells; settings: replicates, sheet FigureS2a;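 further: human CB1R stably expressed in CHO cells, ligands co-incubated with forskolin at room temperature, read-out is lowering of forskolin-stimulated cAMP accumulation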
# T2 sequence (P21554 whole entry): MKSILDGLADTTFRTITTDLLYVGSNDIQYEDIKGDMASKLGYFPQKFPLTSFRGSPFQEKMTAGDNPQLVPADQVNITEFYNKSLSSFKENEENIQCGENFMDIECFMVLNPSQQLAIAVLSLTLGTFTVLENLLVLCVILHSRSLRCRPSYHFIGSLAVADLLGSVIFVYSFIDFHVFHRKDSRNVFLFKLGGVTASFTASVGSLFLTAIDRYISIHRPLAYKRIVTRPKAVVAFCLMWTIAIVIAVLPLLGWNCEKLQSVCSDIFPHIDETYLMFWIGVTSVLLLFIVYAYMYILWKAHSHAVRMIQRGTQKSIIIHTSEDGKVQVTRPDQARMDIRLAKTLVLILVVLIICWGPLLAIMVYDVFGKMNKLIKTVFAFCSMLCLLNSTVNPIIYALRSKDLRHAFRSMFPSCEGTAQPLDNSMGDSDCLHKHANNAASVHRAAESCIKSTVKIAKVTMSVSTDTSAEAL
# Method: The inhibition of forskolin-stimulated cAMP accumulation assays was carried out using PerkinElmer’s Lance Ultra cAMP kit following the manufacturer’s protocol. In brief, CHO cells stably expressing human CB1R (provided by the lab of Laura Bohn) were harvested by incubation with Versene (ThermoFisher Scientific, Waltham, MA) for 10 min, washed once with Hank’s Balanced Salt Solution, and resuspended in stimulation buffer at ~200 cells/μL density. The ligands at eight different concentrations (0.001-10,000 nM) in stimulation buffer (5 μL) containing forskolin (2 μM final concentration) were added to a 384-well plate followed by the cell suspension (5 μL; ~1000 cells/well). The plate was incubated for 30 min at room temperature. Eu-cAMP tracer (5 μL) and Ulight-anti-cAMP (5 μL) working solutions were then added to each well, and the plate was incubated at room temperature for an additional 60 min. Results were measured on a Perkin-Elmer EnVision plate reader. The EC50 values were determined by nonlinear regression analysis using Graphpad Prism 9 and are expressed as the mean of three experiments, each performed in triplicate.
# CB1 (rCB1) [3] = biological target: T1, CB1 (rCB1); experiment: Single-point radioligand displacement screen; assay type: binding
# hCB1 [4] = biological target: T2, hCB1; experiment: bioSensAll ebBRET signaling profiling, hCB1; assay type: cell-based; parameters: host or cells: HEK293SL cells, transient PEI transfection; settings: for Barr2+GRK2 hCB1 response: Barr2+GRK2 biosensor; for Gi1 hCB1 / GoB hCB1: single replicate values, FigS6a; for EC50: read-out: EC50 [95% CI]; for Emax: normalized to CP-55,940
# T1 sequence (P20272 whole entry): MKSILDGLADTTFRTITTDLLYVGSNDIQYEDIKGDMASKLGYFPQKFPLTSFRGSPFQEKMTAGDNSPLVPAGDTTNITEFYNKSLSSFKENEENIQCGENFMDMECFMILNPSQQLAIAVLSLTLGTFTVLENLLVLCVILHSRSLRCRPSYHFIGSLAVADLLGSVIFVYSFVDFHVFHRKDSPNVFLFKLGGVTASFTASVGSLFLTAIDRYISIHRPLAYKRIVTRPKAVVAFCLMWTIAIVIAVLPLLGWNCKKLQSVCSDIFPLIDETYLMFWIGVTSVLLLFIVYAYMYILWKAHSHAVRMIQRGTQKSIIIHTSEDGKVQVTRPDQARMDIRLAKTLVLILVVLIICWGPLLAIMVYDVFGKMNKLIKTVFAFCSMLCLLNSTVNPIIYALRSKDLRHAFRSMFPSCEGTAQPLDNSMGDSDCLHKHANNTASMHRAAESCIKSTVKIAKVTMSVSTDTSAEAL
smiles,measurement,setting,value
Cc1c(C(=O)OCC2CSc3ccccc3O2)cnn1Cc1ccccc1 (centres unmarked) [‘7800],"radioligand binding remaining, competition curve (Figure2e), replicate values",CB1 (rCB1) [1]; log[drug] -3.643,10.4237 and 31.3638 and 29.0535
same,"radioligand binding remaining, competition curve (Figure2e), replicate values",CB1 (rCB1) [1]; log[drug] -4.35655,33.4463 and 9.669 and 4.937
same,"radioligand binding remaining, competition curve (Figure2e), replicate values",CB1 (rCB1) [1]; log[drug] -5.07,28.6441 and 35.1835 and 32.9974
same,"radioligand binding remaining, competition curve (Figure2e), replicate values",CB1 (rCB1) [1]; log[drug] -5.783,65.4237 and 64.1301 and 55.9597
same,"radioligand binding remaining, competition curve (Figure2e), replicate values",CB1 (rCB1) [1]; log[drug] -6.496,99.1808 and 92.7484 and 90.0088
same,"radioligand binding remaining, competition curve (Figure2e), replicate values",CB1 (rCB1) [1]; log[drug] -7.21,109.096 and 99.3733 and 111.043
same,"radioligand binding remaining, competition curve (Figure2e), replicate values",CB1 (rCB1) [1]; log[drug] -7.923,105.847 and 88.1826 and 105.215
same,"radioligand binding remaining, competition curve (Figure2e), replicate values",CB1 (rCB1) [1]; log[drug] -8.636,93.4322 and 101.298 and 96.7572
same,pKi [95% CI],CB1 (rCB1) [1]; rCB1,6.0 [5.78 – 6.21]
same,"cAMP assay signal, concentration-response point",hCB1 [2]; compound 0.01 nM,0.002674 and 0.00241 and 0.002252
same,"cAMP assay signal, concentration-response point",hCB1 [2]; compound 0.1 nM,0.00346* and 0.001953 and 0.002364
same,"cAMP assay signal, concentration-response point",hCB1 [2]; compound 1 nM,0.002571 and 0.002123 and 0.001894
same,"cAMP assay signal, concentration-response point",hCB1 [2]; compound 10 nM,0.002732 and 0.002198 and 0.002584
same,"cAMP assay signal, concentration-response point",hCB1 [2]; compound 100 nM,0.002212 and 0.002457 and 0.002193
same,"cAMP assay signal, concentration-response point",hCB1 [2]; compound 1000 nM,0.002381 (2×) and 0.002128
same,"cAMP assay signal, concentration-response point",hCB1 [2]; compound 10000 nM,0.002 and 0.002342 and 0.001808
same,"cAMP assay signal, concentration-response point",hCB1 [2]; compound 100000 nM,0.001289 and 0.001131 and 0.00137
same,"% 1H-CP-55,940 displacement (mean) from single point screen","CB1 (rCB1) [3]; 10 µM, 1 µM or 300 nM by cell colour (not visible)",80.92%
same,rep1_displacement,"CB1 (rCB1) [3]; Figure 1c source data, replicate 1",81.9
same,rep2_displacement,"CB1 (rCB1) [3]; Figure 1c source data, replicate 2",79.7
same,rep3_displacement,"CB1 (rCB1) [3]; Figure 1c source data, replicate 3",81.1
same,Barr2+GRK2 hCB1 response,hCB1 [4]; Log [Compound] (M) -4.22186,3.174
same,Barr2+GRK2 hCB1 response,hCB1 [4]; Log [Compound] (M) -4.63927,-20.118
same,Barr2+GRK2 hCB1 response,hCB1 [4]; Log [Compound] (M) -5.05788,-51.0681
same,Barr2+GRK2 hCB1 response,hCB1 [4]; Log [Compound] (M) -5.47381,-52.3444
same,Barr2+GRK2 hCB1 response,hCB1 [4]; Log [Compound] (M) -5.89285,-39.9006
same,Barr2+GRK2 hCB1 response,hCB1 [4]; Log [Compound] (M) -6.31878,-51.3872
same,Barr2+GRK2 hCB1 response,hCB1 [4]; Log [Compound] (M) -6.72585,-54.5779
same,Barr2+GRK2 hCB1 response,hCB1 [4]; Log [Compound] (M) -7.14267,-56.4924
same,Barr2+GRK2 hCB1 response,hCB1 [4]; Log [Compound] (M) -7.55284,-57.7686
same,Barr2+GRK2 hCB1 response,hCB1 [4]; Log [Compound] (M) -8,-46.9202
same,Barr2+GRK2 hCB1 response,hCB1 [4]; Log [Compound] (M) -8.22186,-10.8649
same,Barr2+GRK2 hCB1 response,hCB1 [4]; Log [Compound] (M) -8.39794,-42.7722
same,Barr2+GRK2 hCB1 response,hCB1 [4]; Log [Compound] (M) -8.68787,-27.1376
same,Barr2+GRK2 hCB1 response,hCB1 [4]; Log [Compound] (M) -9.15521,-45.9629
same,Barr2+GRK2 hCB1 response,hCB1 [4]; Log [Compound] (M) -9.61989,-54.897
same,Barr2+GRK2 hCB1 response,hCB1 [4]; Log [Compound] (M) -10.0969,-61.2784
same,Barr2+GRK2 hCB1 response,hCB1 [4]; Log [Compound] (M) -10.5529,-43.4104
same,Barr2+GRK2 hCB1 response,hCB1 [4]; Log [Compound] (M) -11.0177,-60.6403
same,Barr2+GRK2 hCB1 response,hCB1 [4]; Log [Compound] (M) -11.4949,-45.3248
same,Barr2+GRK2 hCB1 response,hCB1 [4]; Log [Compound] (M) -11.9208,-40.5387
same,Barr2+GRK2 hCB1 response,hCB1 [4]; Log [Compound] (M) -12.3979,-30.0093
same,Barr2+GRK2 hCB1 response,hCB1 [4]; Log [Compound] (M) -12.8861,-43.4104
same,Barr2+GRK2 hCB1 response,hCB1 [4]; Log [Compound] (M) -13.3979,-3.845
same,Gi1 hCB1,hCB1 [4]; Log [Compound] (M) -4.22186,25.6433
same,GoB hCB1,hCB1 [4]; Log [Compound] (M) -4.22186,18.8832
same,Gi1 hCB1,hCB1 [4]; Log [Compound] (M) -4.63927,18.3425
same,GoB hCB1,hCB1 [4]; Log [Compound] (M) -4.63927,15.081
same,Gi1 hCB1,hCB1 [4]; Log [Compound] (M) -5.05788,16.1253
same,GoB hCB1,hCB1 [4]; Log [Compound] (M) -5.05788,13.1365
same,Gi1 hCB1,hCB1 [4]; Log [Compound] (M) -5.47381,12.8471
same,GoB hCB1,hCB1 [4]; Log [Compound] (M) -5.47381,14.5949
same,Gi1 hCB1,hCB1 [4]; Log [Compound] (M) -5.89285,10.5191
same,GoB hCB1,hCB1 [4]; Log [Compound] (M) -5.89285,11.0184
same,Gi1 hCB1,hCB1 [4]; Log [Compound] (M) -6.31878,9.3
same,GoB hCB1,hCB1 [4]; Log [Compound] (M) -6.31878,4.265
same,Gi1 hCB1,hCB1 [4]; Log [Compound] (M) -6.72585,1.761
same,GoB hCB1,hCB1 [4]; Log [Compound] (M) -6.72585,-3.895
same,Gi1 hCB1,hCB1 [4]; Log [Compound] (M) -7.14267,-0.6935
same,GoB hCB1,hCB1 [4]; Log [Compound] (M) -7.14267,-5.024
same,Gi1 hCB1,hCB1 [4]; Log [Compound] (M) -7.55284,-2.087
same,GoB hCB1,hCB1 [4]; Log [Compound] (M) -7.55284,-3.843
same,Gi1 hCB1,hCB1 [4]; Log [Compound] (M) -8,-2.0396
same,GoB hCB1,hCB1 [4]; Log [Compound] (M) -8,-4.659
same,Gi1 hCB1,hCB1 [4]; Log [Compound] (M) -8.22186,3.424
same,GoB hCB1,hCB1 [4]; Log [Compound] (M) -8.22186,-0.09294
same,Gi1 hCB1,hCB1 [4]; Log [Compound] (M) -8.39794,-0.9469
same,GoB hCB1,hCB1 [4]; Log [Compound] (M) -8.39794,-3.478
same,Gi1 hCB1,hCB1 [4]; Log [Compound] (M) -8.68787,-0.4717
same,GoB hCB1,hCB1 [4]; Log [Compound] (M) -8.68787,-5.371
same,Gi1 hCB1,hCB1 [4]; Log [Compound] (M) -9.15521,-0.4876
same,GoB hCB1,hCB1 [4]; Log [Compound] (M) -9.15521,-5.492
same,Gi1 hCB1,hCB1 [4]; Log [Compound] (M) -9.61989,0.05088
same,GoB hCB1,hCB1 [4]; Log [Compound] (M) -9.61989,-8.027
same,Gi1 hCB1,hCB1 [4]; Log [Compound] (M) -10.0969,-0.4084
same,GoB hCB1,hCB1 [4]; Log [Compound] (M) -10.0969,-5.128
same,Gi1 hCB1,hCB1 [4]; Log [Compound] (M) -10.5529,-1.2
same,GoB hCB1,hCB1 [4]; Log [Compound] (M) -10.5529,-2.958
same,Gi1 hCB1,hCB1 [4]; Log [Compound] (M) -11.0177,-3.528
same,GoB hCB1,hCB1 [4]; Log [Compound] (M) -11.0177,-7.871
same,Gi1 hCB1,hCB1 [4]; Log [Compound] (M) -11.4949,-2.61
same,GoB hCB1,hCB1 [4]; Log [Compound] (M) -11.4949,-5.562
same,Gi1 hCB1,hCB1 [4]; Log [Compound] (M) -11.9208,-3.829
same,GoB hCB1,hCB1 [4]; Log [Compound] (M) -11.9208,-5.683
same,Gi1 hCB1,hCB1 [4]; Log [Compound] (M) -12.3979,-3.75
same,GoB hCB1,hCB1 [4]; Log [Compound] (M) -12.3979,-6.656
same,Gi1 hCB1,hCB1 [4]; Log [Compound] (M) -12.8861,-1.469
same,GoB hCB1,hCB1 [4]; Log [Compound] (M) -12.8861,-6.1521
same,Gi1 hCB1,hCB1 [4]; Log [Compound] (M) -13,0.2409
same,GoB hCB1,hCB1 [4]; Log [Compound] (M) -13,-5.215
same,Gi1 hCB1,hCB1 [4]; Log [Compound] (M) cell empty,-0.4876
same,GoB hCB1,hCB1 [4]; Log [Compound] (M) cell empty,-5.406
same,pEC50 [95% CI],hCB1 [4]; hCB1 Gi1,5.2 [6.0]
same,pEC50 [95% CI],hCB1 [4]; hCB1 GoB,6.2 [5.9 – 6.4]
same,EC50,hCB1 [4]; hCB1 Gi1,6.79 µM
same,EC50,hCB1 [4]; hCB1 GoB,0.597 µM
same,Emax,"hCB1 [4]; read-out: Emax [95% CI], hCB1 Gi1",34%
same,Emax,"hCB1 [4]; read-out: Emax [95% CI], hCB1 GoB",21%
